# Test results taken from paper PMC13338763, “Harnessing albumin as a carrier for the delivery of anti-HIV drugs to the lymphatic system” (Acta biomaterialia, 2025).
# Key:
# BSA = BSA (Bos taurus, UniProt P02769); test: Gel retardation study with BSA; type: binding, bovine; conditions: BSA, weight ratio
# Description: (§1) Twenty (20) μg EB, hEB, hEB-platin, or hEB-DTG were mixed with or without various amounts of BSA, globulin, fibrinogen or FBS in 200 μL saline water, then 40 μL of the mixed solution were loaded to 1.5 % agarose gel and run under 120 V for 30 min.
# HEK293T cells = test: Cellular uptake study in vitro (flow cytometry); type: cell-based; conditions: in words
# Description: HEK293T or HUVEC cells were seeded to 6-well plates. After overnight incubation, the culture medium was replaced by fresh medium containing 10 μM EB and 2, 5, or 20 mg/mL BSA for incubation of 0.5, 1 or 3 h at 37 °C. Later, cells were washed with cold PBS and fixed with PBS containing 4 % (w/v) formaldehyde.
# Cellular uptake of different treatments was quantified by flow cytometry. Fluorescence was examined at an excitation wavelength of 532 nm and an emission wavelength of 660 nm. 10 × 10^4 events were collected for each sample.
# [1] = Distribution in LN tissue and cells in LNs after i.v. injection (fluorescence microscopy, flow cytometry); type: in vivo
# Description: Five (5) μM/kg EB, hEB or hEB-DTG were i.v. injected into mice pretreated intraperitoneally with or without 2.5 mg/kg LPS for 24 h. After 24 h, LNs from different sites were collected and their signals of EB were checked under fluorescent microscopy. To evaluate the EB signals in various types of cells, LNs were disrupted mechanically using scissors, digested with a mixture of deoxyribonuclease I (0.3 mg/mL, Sigma-Aldrich) and TL Liberase (0.25 mg/mL, Roche, IN, USA) in serum-free RPMI-1640 at 37 °C for 30 min, and dispersed through a 40 μm cell strainer (BD Biosciences, CA, USA). After red blood cell lysis, live/dead cell discrimination was performed using a Zombie NIR Fixable Viability Kit (BioLegend, CA, USA, dilution: 1/1000) at 4 °C for 30 min in DPBS. Surface staining was performed at 4 °C for 30 min in FACS staining buffer (1 × phosphate-buffered saline/5 % FBS/0.5 % sodium azide) containing designated antibody cocktails (PerCP anti-mouse CD45 antibody, Brilliant Violet 785 anti-mouse CD4 antibody, FITC anti-mouse CD8 antibody, APC anti-mouse CD11b antibody, APC/Cyanine7 anti-mouse F4/80 antibody, Pacific Blue anti-mouse CD19 antibody and AF647 anti-mouse CD27 antibody; dilution: 1/200 for all antibodies). Flow cytometry was performed with LSRII (BD Biosciences) and Aurora (Cytek Biosciences, CA, USA) instruments and analyzed by FlowJo (BD Biosciences). The EB signals in each type of cell were quantified as mentioned above.
# albumin = test system: albumin; set-up: method as in PMID 27682195; conditions: cited from earlier work
# fibrinogen = molecular target: T1, fibrinogen (Homo sapiens, UniProt P02671+P02675+P02679); test: Gel retardation study with fibrinogen; type: binding
# T1 sequence (P02671 20-629 limits assumed): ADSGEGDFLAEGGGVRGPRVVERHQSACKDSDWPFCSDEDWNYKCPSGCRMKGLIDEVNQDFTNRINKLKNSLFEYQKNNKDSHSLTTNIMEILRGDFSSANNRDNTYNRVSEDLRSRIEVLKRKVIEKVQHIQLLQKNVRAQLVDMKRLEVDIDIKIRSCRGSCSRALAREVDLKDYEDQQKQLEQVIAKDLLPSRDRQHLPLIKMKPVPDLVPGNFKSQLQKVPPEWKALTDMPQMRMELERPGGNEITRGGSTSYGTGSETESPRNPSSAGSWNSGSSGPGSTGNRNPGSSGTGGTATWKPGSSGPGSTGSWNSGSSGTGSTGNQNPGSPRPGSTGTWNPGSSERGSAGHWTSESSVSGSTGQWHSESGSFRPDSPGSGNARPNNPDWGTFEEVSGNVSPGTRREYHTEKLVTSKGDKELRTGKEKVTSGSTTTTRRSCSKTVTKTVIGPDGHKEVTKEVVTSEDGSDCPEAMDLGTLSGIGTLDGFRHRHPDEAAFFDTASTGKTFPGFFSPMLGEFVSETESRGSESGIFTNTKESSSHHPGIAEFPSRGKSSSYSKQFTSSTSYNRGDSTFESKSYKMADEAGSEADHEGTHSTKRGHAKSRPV
# T1 sequence (P02675 31-491): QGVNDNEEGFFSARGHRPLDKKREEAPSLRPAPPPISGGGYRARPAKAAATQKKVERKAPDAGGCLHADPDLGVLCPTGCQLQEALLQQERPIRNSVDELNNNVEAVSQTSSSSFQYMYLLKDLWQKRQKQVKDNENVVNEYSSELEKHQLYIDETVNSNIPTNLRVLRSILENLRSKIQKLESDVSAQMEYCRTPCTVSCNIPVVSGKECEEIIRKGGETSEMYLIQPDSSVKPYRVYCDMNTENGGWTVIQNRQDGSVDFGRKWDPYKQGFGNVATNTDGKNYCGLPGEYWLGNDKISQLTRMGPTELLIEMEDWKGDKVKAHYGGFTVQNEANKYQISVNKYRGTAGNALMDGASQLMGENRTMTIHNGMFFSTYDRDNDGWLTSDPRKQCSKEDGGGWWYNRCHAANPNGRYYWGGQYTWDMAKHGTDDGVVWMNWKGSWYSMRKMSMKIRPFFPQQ
# T1 sequence (P02679 27-453): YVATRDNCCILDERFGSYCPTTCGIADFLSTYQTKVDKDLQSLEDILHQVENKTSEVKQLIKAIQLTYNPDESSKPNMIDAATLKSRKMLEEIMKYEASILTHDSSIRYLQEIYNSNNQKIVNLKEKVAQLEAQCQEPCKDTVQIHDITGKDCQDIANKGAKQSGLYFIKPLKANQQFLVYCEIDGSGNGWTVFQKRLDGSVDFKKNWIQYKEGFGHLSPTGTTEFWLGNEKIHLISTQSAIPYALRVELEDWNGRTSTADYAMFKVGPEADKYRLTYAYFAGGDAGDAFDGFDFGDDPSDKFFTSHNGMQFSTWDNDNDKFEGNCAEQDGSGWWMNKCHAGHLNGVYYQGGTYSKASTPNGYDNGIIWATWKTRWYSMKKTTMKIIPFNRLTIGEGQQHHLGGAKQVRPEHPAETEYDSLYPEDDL
# Description: as §1
# HUVEC monolayer = test: Transwell study: transport across a HUVEC monolayer, flow cytometry of HEK293T cells in lower chamber; type: cell-based; conditions: 8 h; for EB transport across a HUVEC monolayer: EB-positive cells in the lower chamber: Fig. 1J
# Description: HEK293T were seeded to 6-well plates as lower chamber and HUVEC were seeded to Corning (NY, USA) 6-well plate inserts (0.4 μm pore size) in another plate as upper chamber, respectively. After incubation and the cell layer on the upper chamber became intact, the culture medium in the inserts was replaced by fresh medium containing 0, 5 or 20 μg/mL filipin and 0 or 10 μg/mL LPS for overnight incubation. Next, the culture medium in the inserts was replaced with fresh medium containing 10 μM EB, hEB or hEB-DTG and 2 mg/mL BSA, then the inserts were moved to the wells cultured with HEK293T cells for incubation of 8 h at 37 °C. After that, HEK293T cells in the lower chambers were washed with cold PBS.
# EB signals in HEK293T cells were quantified by flow cytometry. Fluorescence was examined at an excitation wavelength of 532 nm and an emission wavelength of 660 nm. 10 × 10^4 events were collected for each sample.
# globulin = test: Gel retardation study with globulin; type: binding
# Description: as §1
# Chain of BSA (P02769 25-607): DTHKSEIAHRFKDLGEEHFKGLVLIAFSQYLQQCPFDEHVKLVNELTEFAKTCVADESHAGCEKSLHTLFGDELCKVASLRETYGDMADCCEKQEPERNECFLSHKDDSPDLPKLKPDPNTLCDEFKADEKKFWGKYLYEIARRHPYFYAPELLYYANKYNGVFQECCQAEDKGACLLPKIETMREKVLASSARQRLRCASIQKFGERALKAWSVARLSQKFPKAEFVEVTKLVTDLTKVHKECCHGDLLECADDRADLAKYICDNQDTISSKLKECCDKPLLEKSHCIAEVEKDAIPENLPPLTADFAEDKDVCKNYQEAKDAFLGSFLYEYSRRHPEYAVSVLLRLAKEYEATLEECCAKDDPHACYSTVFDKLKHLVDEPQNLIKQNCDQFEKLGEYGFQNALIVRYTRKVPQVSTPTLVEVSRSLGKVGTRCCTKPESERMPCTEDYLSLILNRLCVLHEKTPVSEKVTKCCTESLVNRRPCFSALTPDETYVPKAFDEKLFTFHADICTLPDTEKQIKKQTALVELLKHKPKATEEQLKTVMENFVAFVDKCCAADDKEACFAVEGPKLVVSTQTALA
smiles,measurement,setting,value
"Cc1cc(-c2ccc(/N=N/c3ccc4c(S(=O)(=O)O)cc(S(=O)(=O)O)c(N)c4c3O)c(C)c2)ccc1/N=N/c1ccc2c(S(=O)(=O)O)cc(S(=O)(=O)O)c(N)c2c1O [EB, Evans Blue]",albumin/EB weight ratio at which the majority of EB molecules were bound to albumin,BSA,≥ 25
same,cellular uptake,HEK293T cells,efficient and albumin-dependent
same,fluorescence signal in LNs,"[1]; 24 h post i.v. injection, in words",Robust EB fluorescence was detected in all LNs examined
same,EB signals in LNs of LPS-treated vs naive mice,"[1]; 24 h post-injection, LPS 2.5 mg/kg i.p.",not significantly different
same,uptake by immune cell populations in LNs,"[1]; flow cytometry, in words",significant EB signal across multiple cell populations
same,EB molecules bound per albumin molecule,albumin,up to 14
same,binding to fibrinogen,fibrinogen,no detectable binding
same,EB transport across a HUVEC monolayer: EB-positive cells in the lower chamber,HUVEC monolayer; CT (no pretreatment),98.8%
same,EB transport across a HUVEC monolayer: EB-positive cells in the lower chamber,HUVEC monolayer; HUVEC pretreated with LPS + filipin,9.66%
same,EB transport across a HUVEC monolayer: EB-positive cells in the lower chamber,HUVEC monolayer; HUVEC pretreated with LPS,98.7%
same,EB transport across a HUVEC monolayer: EB-positive cells in the lower chamber,HUVEC monolayer; HUVEC pretreated with filipin,5.04%
same,transport across endothelial cell monolayer,"HUVEC monolayer; albumin-bound, in words",strong fluorescent signals were detected in the lower chamber
same,binding to globulin,globulin,no detectable binding
